The values below are quoted from earlier work in patent US20240398979A1, “Compositions and Methods for Treating Dopamine Disorders” (METAQOR LLC, priority 2020, published 2024).

To fix the notation:
B1: brain-derived neurotrophic factor (protein, UniProt P23560 19-247, looked up)
Neurotrophic factor BDNF …: APMKEANIRGQGGLAYPGVRTHGTLESVNGPKAGSRGLTSLADTFEHVIEELLDEDQKVRPNEENNKDADLYTSRVMLSSQVPLEPPLLFLLEEYKNYLDAANMSMRVRRHSDPARRGELSVCDSISEWVTAADKKTAVDMSGGTVTVLEKVPVSKGQLKQYFYETKCNPMGYTKEGCRGIDKRHWNSQCRTTQSYVRALTMDSKKRIGWRFIRIDTSCVCTLTIKRGR
notes: neurotrophin

The test system of the first series is methamphetamine use disorder. Conditions: randomized controlled trials / meta-analyses.
With `COC(=O)C(c1ccccc1)C1CCCCN1` (stereo not shown) [methylphenidate], the “benefit in treatment of MUD” value was “low-strength evidence that methylphenidate may reduce METH use”. Regarding `CC1(C)O[C@@H]2[C@@H](CO[C@@]3(COS(N)(=O)=O)OC(C)(C)O[C@@H]23)O1` [Topiramate], the “benefit in treatment of MUD” value is given as “insufficient evidence of benefit for reducing MUD”. On to `O=C1CCc2ccc(OCCCCN3CCN(c4cccc(Cl)c4Cl)CC3)cc2N1` [aripiprazole], for which the “benefit in treatment of MUD” value is “insufficient evidence of benefit for reducing MUD”. Turning to `O=C1CC[C@@]2(O)[C@H]3Cc4ccc(O)c5c4[C@@]2(CCN3CC2CC2)[C@H]1O5` [naltrexone], the “benefit in treatment of MUD” value is on record as “insufficient evidence of benefit for reducing MUD”. Consider `CN[C@H]1CC[C@@H](c2ccc(Cl)c(Cl)c2)c2ccccc21` [sertraline], for which the “benefit in treatment of MUD” value is “not effective”.

With `c1cnc2cc3c(cc2n1)[C@@H]1CNC[C@H]3C1` [varenicline], the “benefit in treatment of MUD” value is recorded as “insufficient evidence of benefit for reducing MUD”. Consider `CNCC[C@@H](Oc1ccccc1C)c1ccccc1` [atomoxetine], for which the “benefit in treatment of MUD” value was “insufficient evidence of benefit for reducing MUD”. Take `CC(NC(C)(C)C)C(=O)c1cccc(Cl)c1` (stereo not shown) [bupropion]: the “benefit in treatment of MUD” value was “not effective”. As to `NCC1(CC(=O)O)CCCCC1` [gabapentin], the “benefit in treatment of MUD” value was “insufficient evidence of benefit for reducing MUD”.

For the molecule `Cc1nccn1CC1CCc2c(c3ccccc3n2C)C1=O` (stereo not shown) [ondansetron], the “benefit in treatment of MUD” value is given as “No effects”. In the case of `CN1CCN2c3ncccc3Cc3ccccc3C2C1` (stereo not shown) [mirtazapine], the “benefit in treatment of MUD” value was “not effective”. For `NCC(CC(=O)O)c1ccc(Cl)cc1` (stereo not shown) [baclofen], the “benefit in treatment of MUD” value is given as “insufficient evidence of benefit for reducing MUD”.

Tested on in the next series: not given
Settings: not given
Regarding B1, the in vivo half-life was less than 5 min.
